# According to patent publication US20230122344A1, “ANTAGONISTS OF THE MUSCARINIC ACETYLCHOLINE RECEPTOR M4” (Vanderbilt University, priority 2019, published 2023):
# Molecular target: T1, Human M4 (Homo sapiens, UniProt P08173)
# T1 construct: expressed in transfected cells; host or cells: CHO-K1 (ATCC), co-transfected with chimeric G protein Gqi5
# T1 sequence (P08173 1-479): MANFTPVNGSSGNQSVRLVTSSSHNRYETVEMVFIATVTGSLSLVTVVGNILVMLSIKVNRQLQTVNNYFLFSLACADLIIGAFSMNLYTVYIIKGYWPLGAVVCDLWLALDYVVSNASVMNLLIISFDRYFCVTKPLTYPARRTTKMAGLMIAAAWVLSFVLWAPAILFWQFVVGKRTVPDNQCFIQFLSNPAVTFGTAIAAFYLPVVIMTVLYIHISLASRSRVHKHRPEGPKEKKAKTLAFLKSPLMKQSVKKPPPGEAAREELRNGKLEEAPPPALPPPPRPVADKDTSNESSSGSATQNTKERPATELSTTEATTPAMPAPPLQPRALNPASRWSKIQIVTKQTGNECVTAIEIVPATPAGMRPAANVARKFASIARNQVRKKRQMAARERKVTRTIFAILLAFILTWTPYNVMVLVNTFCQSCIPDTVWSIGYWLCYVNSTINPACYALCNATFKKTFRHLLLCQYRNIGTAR
# Test: mAChR M4 cell-based functional assay (calcium flux, antagonism of EC80 acetylcholine response)
# Conditions: M4/Gqi5/CHO-K1 cells; for remaining activity at 30 µM: CHO-K1, % ACh maximum at 30 μM, read-out: Human M4 Emin; for IC50: decrease of response elicited by EC80 acetylcholine
# Description: Human or rat M4 cDNA, along with the chimeric G protein Gqi5, were transfected into Chinese hamster ovary (CHO-K1) cells purchased from the American Type Culture Collection using Lipofectamine2000. M4/Gqi5/CHO cells were grown in Ham's F-12 medium containing 10% heat-inactivated fetal bovine serum (FBS), 20 mM HEPES, 500 μg/mL G418 sulfate, and 200 μg/mL Hygromycin B.
# For high throughput measurement of agonist-evoked increases in intracellular calcium, CHO-K1 cells stably expressing muscarinic receptors were plated in growth medium lacking G418 and hygromycin at 15,000 cells/20 μL/well in Greiner 384-well black-walled, tissue culture (TC)-treated, clear-bottom plates (VWR). Cells were incubated overnight at 37° C. and 5% CO2. The next day, cells were washed using an ELX 405 (BioTek) with assay buffer; the final volume was then aspirated to 20 μL. Next, 20 μL of a 2.3 μM stock of Fluo-4/acetoxymethyl ester (Invitrogen, Carlsbad, Calif.), prepared as a 2.3 mM stock in DMSO and mixed in a 1:1 ratio with 10% (w/v) Pluronic F-127 and diluted in assay buffer, was added to the wells and the cell plates were incubated for 50 min at 37° C. and 5% CO2. Dye was removed by washing with the ELX 405 and the final volume was aspirated to 20 μL. Compound master plates were formatted in a 10 point concentration-response curve (CRC) format (1:3 dilutions) in 100% DMSO with a starting concentration of 10 or 1 mM using a BRAVO liquid handler (Agilent). Test compound CRCs were then transferred to daughter plates (240 nL) using the Echo acoustic plate reformatter (Labcyte, Sunnyvale, Calif.) and then diluted into assay buffer (40 μL) to a 2× stock using a Thermo Fisher Combi (Thermo Fisher Scientific, Waltham, Mass.).
# Calcium flux was measured using the Functional Drug Screening System (FDSS) 6000 or 7000 (Hamamatsu Corporation, Tokyo, Japan) as an increase in the fluorescent static ratio. Compounds were applied to cells (20 μL, 2×) using the automated system of the FDSS at 2 seconds into the protocol and the data were collected at 1 Hz. At 143 s, 10 μL of an EC20 concentration of the muscarinic receptor agonist acetylcholine was added (5×), followed by the addition of 12 μL of an EC80 concentration of acetylcholine at the 268 s time point (5×). Agonist activity was analyzed as a concentration-dependent increase in calcium mobilization upon compound addition. Positive allosteric modulator activity was analyzed as a concentration-dependent increase in the EC20 acetylcholine response. Antagonist activity was analyzed as a concentration-dependent decrease in the EC80 acetylcholine response; for the purposes of the tables herein, an IC50 (inhibitory concentration 50) was calculated as a concentration-dependent decrease of the response elicited by an EC80 concentration of acetylcholine. Concentration-response curves were generated using a four-parameter logistical equation in XLFit curve fitting software (IDBS, Bridgewater, N.J.) for Excel (Microsoft, Redmond, Wash.) or Prism (GraphPad Software, Inc., San Diego, Calif.) or the Dotmatics software platform (Dotmatics, Bishop's Stortford, UK).
# Compounds were synthesized as described above. Activity (IC50 and Emin) was determined in the mAChR M4 cell-based functional assay as described above and the data are shown in Table 2.
Compound,remaining activity at 30 µM [%],IC50 [nM]
"[2H]C([2H])(C1CCOCC1)N1C[C@H]2C[C@H](Nc3nnc(-c4cccc(F)c4)c(C)c3C)C[C@H]2C1 [compound 62, (3aR,5s,6aS)-N-(6-(3-fluorophenyl)-4,5-dimethylpyridazin-3-yl)-2-((tetrahydro-2H-pyran-4-yl)methyl-d2)octahydrocyclopenta[c]pyrrol-5-amine]",2,0.71
"Cc1ccc(C(F)(F)F)cc1-c1cc(C(F)F)c(N[C@H]2C[C@@H]3CN(CC4CCOCC4)C[C@@H]3C2)nn1 [compound 82, (3aR,5s,6aS)-N-(4-(difluoromethyl)-6-(2-methyl-5-(trifluoromethyl)phenyl)pyridazin-3-yl)-2-((tetrahydro-2H-pyran-4-yl)methyl)octahydrocyclopenta[c]pyrrol-5-amine]",4,49
"Cc1ccc(F)cc1-c1cc(-c2cc(F)ccc2C)c(N[C@H]2C[C@@H]3CN(CC4CCOCC4)C[C@@H]3C2)nn1 [compound 10, (3aR,5s,6aS)-N-(4,6-bis(5-fluoro-2-methylphenyl)pyridazin-3-yl)-2-((tetrahydro-2H-pyran-4-yl)methyl)octahydrocyclopenta[c]pyrrol-5-amine]",3,384
"OC1(CN2C[C@H]3C[C@H](Nc4nnc(-c5cc(F)ccc5F)cc4C(F)F)C[C@H]3C2)CCOCC1 [compound 78, 4-(((3aR,5s,6aS)-5-((4-(difluoromethyl)-6-(2,5-difluorophenyl)pyridazin-3-yl)amino)hexahydrocyclopenta[c]pyrrol-2(1H)-yl)methyl)tetrahydro-2H-pyran-4-ol]",4,230
"[2H]C([2H])(C1CCOCC1)N1C[C@H]2C[C@H](Nc3nnc(-c4ccc(F)cc4)c(C)c3C)C[C@H]2C1 [compound 70, (3aR,5s,6aS)-N-(6-(4-fluorophenyl)-4,5-dimethylpyridazin-3-yl)-2-((tetrahydro-2H-pyran-4-yl)methyl-d2)octahydrocyclopenta[c]pyrrol-5-amine]",11,24.1
"Cc1ccc(F)cc1-c1cc(C(F)F)c(N[C@H]2C[C@@H]3CN(CC4CCOCC4)C[C@@H]3C2)nn1 [compound 59, (3aR,5s,6aS)-N-(4-(difluoromethyl)-6-(5-fluoro-2-methylphenyl)pyridazin-3-yl)-2-((tetrahydro-2H-pyran-4-yl)methyl)octahydrocyclopenta[c]pyrrol-5-amine]",3,1.2
"Fc1ccc(F)c(-c2cc(C(F)F)c(N[C@H]3C[C@@H]4CN(C[C@@H]5COCCO5)C[C@@H]4C3)nn2)c1 [compound 80, (3aR,5S,6aS)-2-(((R)-1,4-dioxan-2-yl)methyl)-N-(4-(difluoromethyl)-6-(2,5-difluorophenyl)pyridazin-3-yl)octahydrocyclopenta[c]pyrrol-5-amine]",4,5
"[2H]C([2H])(C1CCOCC1)N1C[C@H]2C[C@H](Nc3nnc(-c4ccc5ccccc5c4)c(C)c3C)C[C@H]2C1 [compound 71, (3aR,5s,6aS)-N-(4,5-dimethyl-6-(naphthalen-2-yl)pyridazin-3-yl)-2-((tetrahydro-2H-pyran-4-yl)methyl-d2)octahydrocyclopenta[c]pyrrol-5-amine]",2,12.7
"Fc1cc(F)c(F)c(-c2nnc(N[C@H]3C[C@@H]4CN(CC5CCCCO5)C[C@@H]4C3)cc2C(F)F)c1 (single isomer, unassigned) [compound 46]",3,1.98
"[2H]C([2H])(C1CCOCC1)N1C[C@H]2C[C@H](Nc3nnc(-c4cc(F)ccc4F)cc3C(F)F)C[C@H]2C1 [compound 25, (3aR,5s,6aS)-N-(4-(difluoromethyl)-6-(2,5-difluorophenyl)pyridazin-3-yl)-2-((tetrahydro-2H-pyran-4-yl)methyl-d2)octahydrocyclopenta[c]pyrrol-5-amine]",3,1.68
"OC1(CN2C[C@H]3C[C@H](Nc4cc(C(F)F)c(-c5cc(F)cc(F)c5F)nn4)C[C@H]3C2)CCOCC1 [compound 55, 4-(((3aR,5s,6aS)-5-((5-(difluoromethyl)-6-(2,3,5-trifluorophenyl)pyridazin-3-yl)amino)hexahydrocyclopenta[c]pyrrol-2(1H)-yl)methyl)tetrahydro-2H-pyran-4-ol]",2,3.12
"Cc1c(-c2cc(C(F)F)c(N[C@H]3C[C@@H]4CN(CC5CCOCC5)C[C@@H]4C3)nn2)ccc2nn(C)cc12 [compound 84, (3aR,5s,6aS)-N-(4-(difluoromethyl)-6-(2,4-dimethyl-2H-indazol-5-yl)pyridazin-3-yl)-2-((tetrahydro-2H-pyran-4-yl)methyl)octahydrocyclopenta[c]pyrrol-5-amine]",3,0.89
"[2H]C([2H])(C1CCOCC1)N1C[C@H]2C[C@H](Nc3nnc(-c4cc(F)ccc4F)cc3C)C[C@H]2C1 [compound 11, (3aR,5s,6aS)-N-(6-(2,5-difluorophenyl)-4-methylpyridazin-3-yl)-2-((tetrahydro-2H-pyran-4-yl)methyl-d2)octahydrocyclopenta[c]pyrrol-5-amine]",3,1
"[2H]C([2H])(C1CCOCC1)N1C[C@H]2C[C@H](Nc3nnc(-c4cc(F)cc(F)c4F)cc3C(F)F)C[C@H]2C1 [compound 88, (3aR,5s,6aS)-N-(4-(difluoromethyl)-6-(2,3,5-trifluorophenyl)pyridazin-3-yl)-2-((tetrahydro-2H-pyran-4-yl)methyl-d2)octahydrocyclopenta[c]pyrrol-5-amine]",3,10
"[2H]C([2H])(C1CCOCC1)N1C[C@H]2C[C@H](Nc3cc(C4(C(F)(F)F)CC4)c(-c4cc(F)c(F)cc4F)nn3)C[C@H]2C1 [compound 38, (3aR,5s,6aS)-2-((tetrahydro-2H-pyran-4-yl)methyl-d2)-N-(5-(1-(trifluoromethyl)cyclopropyl)-6-(2,4,5-trifluorophenyl)pyridazin-3-yl)octahydrocyclopenta[c]pyrrol-5-amine]",3,46.3
"[2H]C([2H])(C1CCOCC1)N1C[C@H]2C[C@H](Nc3nnc(-c4ccccc4F)c(C)c3C)C[C@H]2C1 [compound 61, (3aR,5s,6aS)-N-(6-(2-fluorophenyl)-4,5-dimethylpyridazin-3-yl)-2-((tetrahydro-2H-pyran-4-yl)methyl-d2)octahydrocyclopenta[c]pyrrol-5-amine]",2,0.52
"[2H]C([2H])(C1CCOCC1)N1C[C@H]2C[C@H](Nc3nnc(-c4cc(F)cc(F)c4F)cc3C(C)(C)C)C[C@H]2C1 [compound 36, (3aR,5s,6aS)-N-(4-(tert-butyl)-6-(2,3,5-trifluorophenyl)pyridazin-3-yl)-2-((tetrahydro-2H-pyran-4-yl)methyl-d2)octahydrocyclopenta[c]pyrrol-5-amine]",4,1030
